Measurements as given in patent publication US20160002273A1, “THIENO[3,2-D]PYRIMIDINE-6-CARBOXAMIDES AND ANALOGUES AS SIRTUIN MODULATORS” (GLAXOSMITHKLINE LLC, priority 2013, published 2016).

Key:
[1] = target: T1, SIRT1 (Homo sapiens, UniProt Q96EB6); experiment: SIRT1 deacetylation of Trp 5-mer peptide, OAADPr mass spec assay; conditions: Trp SIRT1_IC50, Trp 5-mer peptide; class symbols
T1 sequence (Q96EB6 1-747): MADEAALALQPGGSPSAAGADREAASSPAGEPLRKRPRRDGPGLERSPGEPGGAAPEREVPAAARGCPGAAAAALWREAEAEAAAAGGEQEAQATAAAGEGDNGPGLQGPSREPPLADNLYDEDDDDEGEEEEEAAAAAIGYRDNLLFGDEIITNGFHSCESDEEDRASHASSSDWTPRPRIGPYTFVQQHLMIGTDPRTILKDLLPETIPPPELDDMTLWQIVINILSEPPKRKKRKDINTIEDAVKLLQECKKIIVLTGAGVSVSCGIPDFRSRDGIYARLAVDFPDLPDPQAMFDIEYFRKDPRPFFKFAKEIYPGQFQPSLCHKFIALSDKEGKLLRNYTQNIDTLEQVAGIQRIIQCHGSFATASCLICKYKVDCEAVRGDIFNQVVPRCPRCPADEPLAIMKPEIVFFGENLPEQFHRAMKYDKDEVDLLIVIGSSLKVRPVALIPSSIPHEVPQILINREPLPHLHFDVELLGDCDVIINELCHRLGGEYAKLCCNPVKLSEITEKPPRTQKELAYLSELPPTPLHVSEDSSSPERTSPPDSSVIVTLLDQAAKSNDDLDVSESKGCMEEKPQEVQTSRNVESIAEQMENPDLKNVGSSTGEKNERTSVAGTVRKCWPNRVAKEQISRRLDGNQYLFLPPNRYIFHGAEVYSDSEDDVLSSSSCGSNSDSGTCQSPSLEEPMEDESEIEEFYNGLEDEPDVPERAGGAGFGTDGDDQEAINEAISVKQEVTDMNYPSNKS
Method: (§1) All assays were performed at room temperature in reaction buffer (50 mM HEPES, pH 7.5, 150 mM NaCl, 1 mM DTT, 0.05% BSA). […] To prepare the assays for analysis, 20 μL of reaction volume was mixed in 80 μL of 50:50 acetonitrile:methanol mixture. […] Peak data was integrated using RapidFire Integrator software (Agilent, Santa Clara, Calif.).

[2] = target: T2, SIRT3 (Homo sapiens, UniProt Q9NTG7); experiment: SIRT3 deacetylation of Trp 5-mer peptide, OAADPr mass spec assay; conditions: Trp SIRT3_IC50, Trp 5-mer peptide; class symbols
T2 sequence (Q9NTG7 102-399): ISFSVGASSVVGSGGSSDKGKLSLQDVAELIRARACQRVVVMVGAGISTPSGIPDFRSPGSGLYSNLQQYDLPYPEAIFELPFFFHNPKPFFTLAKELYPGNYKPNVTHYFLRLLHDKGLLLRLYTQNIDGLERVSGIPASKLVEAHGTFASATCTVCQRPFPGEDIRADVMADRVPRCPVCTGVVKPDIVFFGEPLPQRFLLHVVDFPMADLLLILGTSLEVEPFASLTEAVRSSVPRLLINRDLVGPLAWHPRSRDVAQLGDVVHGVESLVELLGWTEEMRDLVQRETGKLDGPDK
Method: as §1

[3] = target: T3, SIRT2 (Homo sapiens, UniProt Q8IXJ6); experiment: SIRT2 deacetylation of Trp 5-mer peptide, OAADPr mass spec assay; assay type: biochemical; set-up: His-SIRT2(1-389); conditions: Trp 5-mer peptide; class symbols; read-out: Trp SIRT2_IC50
T3 sequence (Q8IXJ6 1-389): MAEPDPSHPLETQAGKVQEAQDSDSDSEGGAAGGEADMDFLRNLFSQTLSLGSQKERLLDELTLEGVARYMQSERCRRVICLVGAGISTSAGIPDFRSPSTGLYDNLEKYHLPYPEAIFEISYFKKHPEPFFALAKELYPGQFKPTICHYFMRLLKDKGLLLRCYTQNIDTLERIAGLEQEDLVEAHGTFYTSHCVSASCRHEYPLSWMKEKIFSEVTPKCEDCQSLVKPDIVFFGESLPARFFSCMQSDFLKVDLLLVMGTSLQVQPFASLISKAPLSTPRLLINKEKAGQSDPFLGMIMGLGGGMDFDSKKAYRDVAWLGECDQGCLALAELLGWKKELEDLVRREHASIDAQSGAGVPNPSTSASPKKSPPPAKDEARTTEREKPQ

IC50 [1] [nM]	IC50 [2] [nM]	IC50 [3] [nM]	SMILES
> 10000	1000 to 10000	> 10000	NC(=O)c1cc2ncnc(N3CCC(C4CCNCC4)CC3)c2o1 [Compound 100, 4-([4,4′-bipiperidin]-1-yl)furo[3,2-d]pyrimidine-6-carboxamide]
< 1000	< 1000	< 1000	CC(C)(C)OC(=O)NCCC1CCN(c2ccnc3cc(C(N)=O)sc23)CC1 [Compound 103, tert-butyl (2-(1-(2-carbamoylthieno[3,2-b]pyridin-7-yl)piperidin-4-yl)ethyl)carbamate]
1000 to 10000	< 1000	< 1000	NCCC1CCN(c2ccnc3cc(C(N)=O)sc23)CC1 [Compound 104, 7-(4-(2-aminoethyl)piperidin-1-yl)thieno[3,2-b]pyridine-2-carboxamide]
1000 to 10000	< 1000	< 1000	NC(=O)c1cc2nccc(N3CCC(CN4CCCC4)CC3)c2s1 [Compound 105]
1000 to 10000	> 10000	1000 to 10000	CC(C)(C)C(=O)NCCC1CCN(c2ncc(Br)c3cc(C(N)=O)sc23)CC1 [Compound 112, 4-bromo-7-(4-(2-pivalamidoethyl)piperidin-1-yl)thieno[2,3-c]pyridine-2-carboxamide]
< 1000	< 1000	< 1000	Cc1c(C(N)=O)sc2c(N3CCC(CCNC(=O)OC(C)(C)C)CC3)ncnc12 [Compound 116, tert-butyl (2-(1-(6-carbamoyl-7-methylthieno[3,2-d]pyrimidin-4-yl)piperidin-4-yl)ethyl)carbamate]
> 10000	1000 to 10000	1000 to 10000	Cc1c(C(N)=O)sc2c(N3CCC(CCN)CC3)ncnc12 [Compound 117, 4-(4-(2-aminoethyl)piperidin-1-yl)-7-methylthieno[3,2-d]pyrimidine-6-carboxamide]
< 1000	< 1000	< 1000	NCCNC(=O)c1cccc(C(=O)NCCN2CCN(c3ncnc4cc(C(N)=O)sc34)CC2)c1 [Compound 127, N1-(2-aminoethyl)-N3-(2-(4-(6-carbamoylthieno[3,2-d]pyrimidin-4-yl)piperazin-1-yl)ethyl)isophthalamide]
< 1000	< 1000	< 1000	NC(=O)c1cc2ncnc(N3CCC(CN4CCCC(C(F)(F)F)C4)CC3)c2s1 (stereo not drawn) [Compound 131, 4-(4-((3-(trifluoromethyl)piperidin-1-yl)methyl)piperidin-1-yl)thieno[3,2-d]pyrimidine-6-carboxamide]
< 1000	< 1000	< 1000	NC(=O)c1cc2ncnc(N3CCC(CN4CCCC4C(F)(F)F)CC3)c2s1 (stereo not drawn) [Compound 132]
< 1000	< 1000	< 1000	CCNC(=O)c1cc(Br)cc(C(=O)NCCC2CCN(c3ncnc4cc(C(N)=O)sc34)CC2)c1 [Compound 136, 5-bromo-N^1-(2-(1-(6-carbamoylthieno[3,2-d]pyrimidin-4-yl)piperidin-4-yl)ethyl)-N^3-ethylisophthalamide]
1000 to 10000	< 1000	< 1000	Cc1nc(N2CCC(CCNC(=O)OC(C)(C)C)CC2)c2sc(C(N)=O)cc2n1 [Compound 145, tert-butyl (2-(1-(6-carbamoyl-2-methylthieno[3,2-d]pyrimidin-4-yl)piperidin-4-yl)ethyl)carbamate]
1000 to 10000	< 1000	1000 to 10000	Cc1nc(N2CCC(CCN3CCCC3)CC2)c2sc(C(N)=O)cc2n1 [Compound 146]
> 10000	1000 to 10000	1000 to 10000	Cc1nc(N2CCC(CN3CCCC3)CC2)c2sc(C(N)=O)cc2n1 [Compound 147]
1000 to 10000	1000 to 10000	1000 to 10000	COCCC1CCN(c2nc(C)nc3cc(C(N)=O)sc23)CC1 [Compound 148]
> 10000	1000 to 10000	1000 to 10000	Cc1nc(N2CCN(CCNC(=O)OC(C)(C)C)CC2)c2sc(C(N)=O)cc2n1 [Compound 149]
1000 to 10000	< 1000	1000 to 10000	Cc1nc(N2CCN(CCN3CCCC3)CC2)c2sc(C(N)=O)cc2n1 [Compound 150]
1000 to 10000	1000 to 10000	1000 to 10000	Cc1nc(N2CCC(CCO)CC2)c2sc(C(N)=O)cc2n1 [Compound 151]

IC50 [1] [nM]	IC50 [2] [nM]	IC50 [3] [nM]	SMILES
> 10000	1000 to 10000	1000 to 10000	Cc1nc(N2CCC(CCN)CC2)c2sc(C(N)=O)cc2n1 [Compound 152, 4-(4-(2-aminoethyl)piperidin-1-yl)-2-methylthieno[3,2-d]pyrimidine-6-carboxamide]
> 10000	1000 to 10000	1000 to 10000	Cc1nc(N2CCN(CCN)CC2)c2sc(C(N)=O)cc2n1 [Compound 153]
1000 to 10000	1000 to 10000	< 1000	Cc1nc(N2CCN(CCNC(=O)C(C)(C)C)CC2)c2sc(C(N)=O)cc2n1 [Compound 156]
1000 to 10000	1000 to 10000	< 1000	Cc1nc(N2CCN(CCNC(=O)C3CCCC3)CC2)c2sc(C(N)=O)cc2n1 [Compound 157]
> 10000	1000 to 10000	1000 to 10000	Cc1nc(N2CCN(CCNS(C)(=O)=O)CC2)c2sc(C(N)=O)cc2n1 [Compound 158]
< 1000	1000 to 10000	< 1000	Cc1nc(N2CCC(CCNC(=O)C(C)(C)C)CC2)c2sc(C(N)=O)cc2n1 [Compound 159]
1000 to 10000	1000 to 10000	1000 to 10000	CC(C)(C)OC(=O)NCCC1CCN(c2nccc3cc(C(N)=O)sc23)CC1 [Compound 168, tert-butyl (2-(1-(2-carbamoylthieno[2,3-c]pyridin-7-yl)piperidin-4-yl)ethyl)carbamate]
1000 to 10000	< 1000	1000 to 10000	NC(=O)c1cc2ccnc(N3CCC(CCN4CCCC4)CC3)c2s1 [Compound 169]
> 10000	1000 to 10000	> 10000	NC(=O)c1cc2ccnc(N3CCC(CN4CCCC4)CC3)c2s1 [Compound 170]
> 10000	> 10000	> 10000	COCCC1CCN(c2nccc3cc(C(N)=O)sc23)CC1 [Compound 171]
1000 to 10000	< 1000	1000 to 10000	NC(=O)c1cc2ccnc(N3CCN(CCN4CCCC4)CC3)c2s1 [Compound 173]
> 10000	> 10000	> 10000	NCCC1CCN(c2nccc3cc(C(N)=O)sc23)CC1 [Compound 175, 7-(4-(2-aminoethyl)piperidin-1-yl)thieno[2,3-c]pyridine-2-carboxamide]
> 10000	> 10000	1000 to 10000	CC(C)(C)C(=O)NCCN1CCN(c2nccc3cc(C(N)=O)sc23)CC1 [Compound 179]
> 10000	1000 to 10000	1000 to 10000	NC(=O)c1cc2ncnc(N3CCC(C(=O)N4CCCC4)CC3)c2s1 [Compound 182]
< 1000	< 1000	< 1000	CC(C1CCN(c2ncnc3cc(C(N)=O)sc23)CC1)N1CCCC1 (stereo not drawn) [Compound 183]
1000 to 10000	1000 to 10000	< 1000	CC(C)(C)OC(=O)N1CCC2(CCN(c3ncnc4cc(C(N)=O)sc34)CC2)C1 [Compound 184]
< 1000	< 1000	< 1000	CC(C)(C)C(=O)N1CCC2(CCN(c3ncnc4cc(C(N)=O)sc34)CC2)C1 [Compound 186]

SMILES	IC50 [1] [nM]	IC50 [2] [nM]	IC50 [3] [nM]
NC(=O)c1cc2ncnc(N3CCC4(CCNC4)CC3)c2s1 [Compound 185]	1000 to 10000	< 1000	1000 to 10000
